Assay results taken from article PMC3474771, “Evaluation of 14 Organic Solvents and Carriers for Screening Applications in Zebrafish Embryos and Larvae” (PLoS ONE, 2012).
Like-named read-outs stand apart in the source and are kept apart here.

Legend:
zebrafish embryos = test system: zebrafish embryos; design: method as in PMID 16125774; settings: 2% DMSO; cited from earlier work
[1] = test system: zebrafish embryos and larvae; settings: for Maximum-tolerated concentration (MTC): highest concentration with no phenotypic abnormalities, followed to 9 dpf; for Phenotypic effects above MTC after 24 hours (average penetrance at least 50%): at the concentration in parentheses
Experimental: Zebrafish embryos of the AB wild-type strain (originally obtained from the Zebrafish International Resource Center, Eugene, Oregon, USA) were raised at 28°C. Zebrafish husbandry, embryo collection, and embryo and larva maintenance were performed as described, [21]. Toxicity assays were standardly performed in 24-well microtiter plates (wrapped with Parafilm to limit solvent evaporation) using 10 embryos per well in 1 ml of 0.3× Danieau's medium (17 mM NaCl, 2 mM KCl, 0.12 mM MgSO4, 1.8 mM Ca(NO3)2 and 1.5 mM HEPES, pH 7.6). Each experiment was repeated 3 times for a total of 30 embryos or larvae analyzed per solvent per developmental staged tested. Data were only recorded for experiments in which the percentage of normal embryos or larvae in the control group was at least 90%. […] In determining the maximum tolerated concentration (MTC) for each solvent and carrier, all post-exposure embryos and larvae were allowed to develop in larva medium to 9 dpf, so as to detect any deleterious effects appearing after this 24-hour window. Solvents and carriers were obtained from the following suppliers: acetone (Chemlab, Zedelgem, Belgium), acetonitrile (Acros Organics, Geel, Belgium), albumin (BSA, Sigma-Aldrich, Bornem, Belgium), butanone (Riedel-de Haën, Seelze, Germany), cyclodextrin (2- hydroxypropyl-beta-cyclodextrin, Sigma-Aldrich), dimethyl formamide (Acros), DMSO (Agros), ethanol (Fisher Scientific, Doornik, Belgium), glycerol (Acros), isopropanol (Chemlab), methanol (Chemlab), polyethylene glycol-400 (Fluka, Bornem, Belgium), propylene glycol (Certa, Eigenbrakel, Belgium), solketal (Merck, Overijse, Belgium). Statistical analyses were done using chi-square in Microsoft Excel.
Twelve solvents and 2 carriers – chosen based solely on their potential utility for the solubilization and delivery of a structurally diverse range of small molecules – were analyzed for their effects on zebrafish embryos and larvae. The solvents included acetone, acetonitrile, butanone, dimethyl formamide, DMSO, ethanol, glycerol, isopropanol, methanol, polyethylene glycol (PEG-400), propylene glycol, and solketal, and the carriers included albumin (BSA) and cyclodextrin (2-hydroxypropyl-beta-cyclodextrin, or HPBCD). […] For this initial study, the effects of a 24-hour exposure to each solvent and carrier was analyzed using embryos and larvae at the following developmental stages: 2–4 cell, 4 hours-post fertilization (hpf), and 1, 2, 3, 4, and 7 days post-fertilization (dpf).

early embryos = test system: early embryos; design: method as in PMID 18031801; settings: solutions containing between 5 and 10% of this solvent; cited from earlier work
[2] = exposure for 24 hours beginning at 1 dpf
[3] = exposure for 24 hours beginning at 2 dpf
[4] = exposure for 24 hours beginning at 2–4 cell stage
[5] = exposure for 24 hours beginning at 3 dpf
[6] = exposure for 24 hours beginning at 4 dpf
[7] = exposure for 24 hours beginning at 4 hpf
[8] = exposure for 24 hours beginning at 5 dpf
[9] = exposure for 24 hours beginning at 7 dpf

C[S+](C)[O-] [Dimethyl sulfoxide (DMSO), Dimethyl sulfoxide]
Adverse effects at maximum concentration tested (zebrafish embryos): no adverse effects | Lowest concentration at which an average penetrance of at least 50% was observed for the phenotypic effects ([1]; 24 hours exposure from 3 dpf): 2.5% | Lowest concentration at which an average penetrance of at least 50% was observed for the phenotypic effects ([1]; 24 hours exposure from 5 dpf): 2.5% | Lowest concentration at which an average penetrance of at least 50% was observed for the phenotypic effects ([1]; 24 hours exposure from 7 dpf): 2% | MTC / tolerated concentration as summarised in the text for a subset of stages ([1]; BSA: intermediate stages, DMSO: embryos, glycerol: younger larvae and embryos): at least 2.5% | Maximum-tolerated concentration (MTC) [1, 2]: 2% | Maximum-tolerated concentration (MTC) [1, 3]: 2% | Maximum-tolerated concentration (MTC) [1, 4]: >2.5% | Maximum-tolerated concentration (MTC) [1, 5]: 1.5% | Maximum-tolerated concentration (MTC) [1, 6]: 2% | Maximum-tolerated concentration (MTC) [1, 7]: >2.5% | Maximum-tolerated concentration (MTC) [1, 8]: 2% | Maximum-tolerated concentration (MTC) [1, 9]: 1.5% | Phenotypic effects above MTC after 24 hours (average penetrance at least 50%) ([1]; exposure from 3 dpf): NB SB | Phenotypic effects above MTC after 24 hours (average penetrance at least 50%) ([1]; exposure from 5 dpf): GG IC IM LP | Phenotypic effects above MTC after 24 hours (average penetrance at least 50%) ([1]; exposure from 7 dpf): NB LP | Levels at which abnormalities or lethality begin in at least a subset of treated animals ([1]; larvae): 2–2.5%

CC(O)CO (stereo not drawn) [Propylene glycol]
Toxicity of brief exposures to cryoprotectant solutions (early embryos): toxic | Maximum-tolerated concentration (MTC) [1, 2]: >2.5% | Maximum-tolerated concentration (MTC) [1, 3]: >2.5% | Maximum-tolerated concentration (MTC) [1, 4]: >2.5% | Maximum-tolerated concentration (MTC) [1, 5]: 2% | Maximum-tolerated concentration (MTC) [1, 6]: 1.5% | Maximum-tolerated concentration (MTC) [1, 7]: >2.5% | Maximum-tolerated concentration (MTC) [1, 8]: >2.5% | Maximum-tolerated concentration (MTC) [1, 9]: 1.5% | MTC / tolerated concentration ([1]; over all or most developmental stages analyzed, 24-hour exposure): at least 2.5%
